In patent publication US12600728B2, “Interleukin-17 inhibitors” (priority 2020, dated 2026) one finds IC50 data, which are given here for 26 molecules.

Structures are written as SMILES.

biotinylated human IL-17A / AF647-labeled human IL-17RA, sequence (Q16552 24-155): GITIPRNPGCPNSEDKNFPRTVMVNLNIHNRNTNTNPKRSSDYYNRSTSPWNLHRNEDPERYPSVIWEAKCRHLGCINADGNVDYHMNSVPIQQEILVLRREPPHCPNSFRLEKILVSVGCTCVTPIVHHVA

The first test has as its target biotinylated human IL-17A / AF647-labeled human IL-17RA (Homo sapiens, UniProt Q16552). In words: Human IL-17A×IL-17RA TR-FRET assay. The settings on record: IL17AA FRET/ IL17Rawt IC50, TR-FRET, 5 nM IL-17A, 30 nM IL-17RA. The format is binding. The method, then: Human IL-17A×IL-17RA TR-FRET Assay
Each compound concentration is tested in duplicate.
The final total assay volume is 10 μL.
Each plate contains test compounds in columns 1-22 and controls in columns 23 and 24. The neutral control (NC) contains all the assay components, but DMSO instead of test compound. […] The fluorescence values for emission at 615 nm and 665 nm are loaded to the evaluation software Helios.
From the activity data at each compound concentration, the IC50 values are obtained using the 4-parameter logistic function (“Hill-slope model”) of Helios.
`CCn1nccc1C(=O)NC(C(=O)Nc1ccc(-c2c(C(F)(F)F)cc[n+]([O-])c2C)cc1)C1CC2CC2C1` (single isomer, unassigned) [Example 154] showed an IC50 of 6300 nM. Regarding `Cc1cc[n+]([O-])cc1-c1ccc(NC(=O)[C@@H](NC(=O)c2ccnn2C)C2CCCCC2)cc1F` [Example 168, (S)-3-(4-(2-cyclohexyl-2-(1-methyl-1H-pyrazole-5-carboxamido)acetamido)-2-fluorophenyl)-4-methylpyridine 1-oxide], the IC50 is 1470 nM. Still for that read-out and setting: for `Cc1c(-c2ccc(NC(=O)[C@@H](NC(=O)c3ccnn3C)C3CCC(F)(F)CC3)cc2)cc(Cl)c[n+]1[O-]` [Example 177, (S)-5-chloro-3-(4-(2-(4,4-difluorocyclohexyl)-2-(1-methyl-1H-pyrazole-5-carboxamido)acetamido)phenyl)-2-methylpyridine 1-oxide] the value was 2110 nM.

The test is the same for the next values; noted with them: IL17AA FRET/ IL17Rawt IC50, TR-FRET, biotinylated human IL-17A 5 nM, AF647-labeled human IL-17RA 30 nM.
Consider `Cc1c(-c2ccc(NC(=O)C(NC(=O)c3ccnn3C)C3CC4C(C3)C4(F)F)cc2)c(Cl)cc[n+]1[O-]` (single isomer, unassigned) [Example 54b], for which the IC50 turned out to be 10900 nM. Still for that read-out and setting: then `Cc1c[n+]([O-])ccc1-c1ccc(NC(=O)[C@@H](NC(=O)c2ccnn2C)C2CCCCC2)cc1` [Example 111, (S)-4-(4-(2-cyclohexyl-2-(1-methyl-1H-pyrazole-5-carboxamido)acetamido)phenyl)-3-methylpyridine I-oxide], with 4780 nM.

Still in this test, the particulars now being: TR-FRET, 5 nM IL-17A, 30 nM IL-17RA; read-out: IL17AA FRET/ IL17Rawt IC50.
As to `Cc1cc[n+]([O-])c(C)c1-c1ccc(NC(=O)C(NC(=O)c2ccc3n2CCN(C)C3)C2CC3CC3C2)cc1` (single isomer, unassigned) [Example 150], the IC50 came to 464 nM.

Regarding `Cc1cc[n+]([O-])c(C)c1-c1ccc(NC(=O)[C@@H](NC(=O)c2ccc3n2CCN(C)C3)[C@H]2CCCC(F)(F)C2)cc1` [Example 152, 3-(4-((S)-2-((S)-3,3-difluorocyclohexyl)-2-(2-methyl-1,2,3,4-tetrahydropyrrolo[1,2-a]pyrazine-6-carboxamido)acetamido)phenyl)-2,4-dimethylpyridine 1-oxide], the IC50 is 391 nM. The same measure, in the same setting: then `Cc1cc[n+]([O-])c(C)c1-c1ccc(NC(=O)[C@@H](NC(=O)c2ccc3n2CCN(C)C3)C2CCCC2)cc1` [Example 153, (S)-3-(4-(2-cyclopentyl-2-(2-methyl-1,2,3,4-tetrahydropyrrolo[1,2-a]pyrazine-6-carboxamido)acetamido)phenyl)-2,4-dimethylpyridine 1-oxide], with 798 nM; and `Cc1cc[n+]([O-])c(C)c1-c1ccc(NC(=O)[C@@H](NC(=O)c2conc2CO)C2CCC(F)(F)CC2)cc1` [Example 155, (S)-3-(4-(2-(4,4-difluorocyclohexyl)-2-(3-(hydroxymethyl)isoxazole-4-carboxamido)acetamido)phenyl)-2,4-dimethylpyridine 1-oxide], with 1150 nM; and `Cc1c(-c2ccc(NC(=O)C(NC(=O)c3ccc4n3CCN(C)C4)[C@@H]3C[C@@H]4[C@H](C3)C4(F)F)cc2)c(Cl)cc[n+]1[O-]` (stereo partly drawn) [Example 165, 4-chloro-3-(4-(2-((1R,3s,5S)-6,6-difluorobicyclo[3.1.0]hexan-3-yl)-2-(2-methyl-1,2,3,4-tetrahydropyrrolo[1,2-a]pyrazine-6-carboxamido)acetamido)phenyl)-2-methylpyridine 1-oxide], with 301 nM. As for `Cc1c(-c2ccc(NC(=O)[C@@H](NC(=O)c3ccc4n3CCN(C)C4)[C@H]3CCCC(F)(F)C3)cc2)c(C(F)(F)F)cc[n+]1[O-]` [Example 166, 3-(4-((S)-2-((S)-3,3-difluorocyclohexyl)-2-(2-methyl-1,2,3,4-tetrahydropyrrolo[1,2-a]pyrazine-6-carboxamido)acetamido)phenyl)-2-methyl-4-(trifluoromethyl)pyridine 1-oxide], the IC50 stood at 358 nM. Still for that read-out and setting: then `COCc1nocc1C(=O)N[C@H](C(=O)Nc1ccc(-c2cc(Cl)c[n+]([O-])c2C)cc1)C1CCC(F)(F)CC1` [Example 176, (S)-5-chloro-3-(4-(2-(4,4-difluorocyclohexyl)-2-(3-(methoxymethyl)isoxazole-4-carboxamido)acetamido)phenyl)-2-methylpyridine 1-oxide], with 1610 nM; and `Cc1cc[n+]([O-])c(C)c1-c1ccc(NC(=O)[C@@H](NC(=O)c2ccc3n2CCNC3)[C@H]2CCCC(F)(F)C2)cc1` [Example 208, 3-(4-((S)-2-((S)-3,3-difluorocyclohexyl)-2-(1,2,3,4-tetrahydropyrrolo[1,2-a]pyrazine-6-carboxamido)acetamido)phenyl)-2,4-dimethylpyridine 1-oxide], with 316 nM.

Still in this test, the particulars now being: TR-FRET, biotinylated human IL-17A 5 nM, AF647-labeled human IL-17RA 30 nM; read-out: IL17AA FRET/ IL17Rawt IC50.
Consider `Cc1c(-c2ccc(NC(=O)[C@@H](NC(=O)c3ccc4n3CCN(C)C4)C3CCC(F)CC3)cc2)c(Cl)cc[n+]1[O-]` (mixture of isomers) [Example 129, 4-chloro-3-(4-((2S)-2-(4-fluorocyclohexyl)-2-(2-methyl-1,2,3,4-tetrahydropyrrolo[1,2-a]pyrazine-6-carboxamido)acetamido)phenyl)-2-methylpyridine 1-oxide], for which the IC50 was found to be 382 nM. Still for that read-out and setting: for `CCn1nccc1C(=O)N[C@@H](C(=O)Nc1ccc(-c2c(Cl)cc[n+]([O-])c2C)cc1)C1CCC(F)(F)CC1` (single isomer, unassigned) [Example 13b] the value was 30400 nM; for `CCn1nccc1C(=O)NC(C(=O)Nc1ccc(-c2c(Cl)cc[n+]([O-])c2C)cc1)C1CCC(C(F)(F)F)CC1` [Example 20, 4-chloro-3-(4-((S)-2-(1-ethyl-1H-pyrazole-5-carboxamido)-2-((1r,4S)-4-(trifluoromethyl)cyclohexyl)acetamido)phenyl)-2-methylpyridine 1-oxi], 680 nM. With `Cc1cc[n+]([O-])c(C)c1-c1ccc(NC(=O)C(NC(=O)c2ccnn2C)C2(C)CCCCC2)cc1` (centres unmarked) [Example 43, 2,4-dimethyl-3-(4-(2-(1-methyl-1H-pyrazole-5-carboxamido)-2-(1-methylcyclohexyl)acetamido)phenyl)pyridine 1-oxide], the IC50 is 78900 nM. In the case of `Cc1nc(C(F)(F)F)c(C(=O)N[C@H](C(=O)Nc2ccc(-c3c(C(F)(F)F)cc[n+]([O-])c3C)cc2)C2CCCC2)s1` [Example 73, (S)-3-(4-(2-cyclopentyl-2-(2-methyl-4-(trifluoromethyl)thiazole-5-carboxamido)acetamido)phenyl)-2-methyl-4-(trifluoromethyl)pyridine 1-oxide], the IC50 worked out at 1410 nM. The same measure, in the same setting: then `Cc1cc[n+]([O-])c(C)c1-c1ccc(NC(=O)[C@@H](NC(=O)c2conc2CN(C)C)C2CCCCC2)cc1` [Example 80, (S)-3-(4-(2-cyclohexyl-2-(3-((dimethylamino)methyl)isoxazole-4-carboxamido)acetamido)phenyl)-2,4-dimethylpyridine 1-oxide], with 4450 nM; and `Cc1cc[n+]([O-])cc1-c1ccc(NC(=O)[C@@H](NC(=O)c2ccnn2C)C2CCCCC2)cc1` [Example 81, (S)-3-(4-(2-cyclohexyl-2-(1-methyl-1H-pyrazole-5-carboxamido)acetamido)phenyl)-4-methylpyridine 1-oxide], with 3740 nM. Still for that read-out and setting: then `Cc1c(-c2ccc(NC(=O)[C@@H](NC(=O)c3ccnn3C)C3CCCCC3)c(Cl)c2)c(Cl)cc[n+]1[O-]` [Example 85, (S)-4-chloro-3-(3-chloro-4-(2-cyclohexyl-2-(1-methyl-1H-pyrazole-5-carboxamido)acetamido)phenyl)-2-methylpyridine 1-oxide], with 20900 nM; and `Cc1c[n+]([O-])cc(C)c1-c1ccc(NC(=O)[C@@H](NC(=O)c2ccnn2C2CC2)C2CCCCC2)cc1` [Example 98, (S)-4-(4-(2-cyclohexyl-2-(1-cyclopropyl-1H-pyrazole-5-carboxamido)acetamido)phenyl)-3,5-dimethylpyridine 1-oxide], with 1400 nM; and `Cc1cc[n+]([O-])c(F)c1-c1ccc(NC(=O)[C@@H](NC(=O)c2ccnn2C)C2CCCCC2)cc1` [Example 114, (S)-3-(4-(2-cyclohexyl-2-(1-methyl-1H-pyrazole-5-carboxamido)acetamido)phenyl)-2-fluoro-4-methylpyridine 1-oxide], with 2790 nM. The same measure, in the same setting: then `Cc1cc[n+]([O-])c(C)c1-c1ccc(NC(=O)[C@@H](NC(=O)c2ccc3n2CCN(C2CC2)C3)C2CCCCC2)cc1` [Example 131, (S)-3-(4-(2-cyclohexyl-2-(2-cyclopropyl-1,2,3,4-tetrahydropyrrolo[1,2-a]pyrazine-6-carboxamido)acetamido)phenyl)-2,4-dimethylpyridine 1-oxide], with 102 nM. With `Cc1cc[n+]([O-])c(C)c1-c1ccc(NC(=O)[C@@H](NC(=O)c2ccc3n2CCN(C2COC2)C3)[C@H]2CC[C@H](C(F)(F)F)CC2)cc1` [Example 132, 2,4-dimethyl-3-(4-((S)-2-(2-(oxetan-3-yl)-1,2,3,4-tetrahydropyrrolo[1,2-a]pyrazine-6-carboxamido)-2-((1r,4S)-4-(trifluoromethyl)cyclohexyl)acetamido)phenyl)pyridine 1-oxide], the IC50 was determined as 866 nM. On the same count and under the same terms, for `COCCN1CCn2c(ccc2C(=O)N[C@H](C(=O)Nc2ccc(-c3c(C)cc[n+]([O-])c3C)cc2)C2CCCCC2)C1` [Example 135, (S)-3-(4-(2-cyclohexyl-2-(2-(2-methoxyethyl)-1,2,3,4-tetrahydropyrrolo[1,2-a]pyrazine-6-carboxamido)acetamido)phenyl)-2,4-dimethylpyridine 1-oxide] the value was 451 nM.
